According to publication PMC10974768 (Toxins, 2024):
Values joined by “and” are separate entries in the source; they are usually repeats but may differ in a detail not shown here. Identical values can stand only once. Like-named read-outs stand apart in the source and are kept apart here.

Experiments:
CYP2A6 [1] = assay: in vitro; settings: read-out: IC50 for CYP2A6
Protocol: (§1) A cocktail-approach for elucidating the metabolites profiling and CYP450 inhibition was conducted as in Lin et al. with minor changes. The incubation mixture contained 50 μL of 0.2 mg/mL of CLM, 10 μL of 0.1 M phosphate buffer (pH 7.4), 40 μL of 1 mM NADPH and six probe substrates with a total volume of 200 μL. The specific probe substrates used for each CYP450 isoenzyme in the incubation mixture were as follows: PH (CYP1A2), BP (CYP2B6), CLN (CYP2E1), TBD (CYP2C9), CAN (CYP2A6), and MDZ (CYP3A4). Probes substrates were dissolved in methanol as stock solution (1 mg/mL). All of them were diluted to the final concentrations (see Supplemental Materials) with incubation buffer and the percentage of organic solvent in the final incubation volume was below 1% (v/v). Briefly, the mixture was preincubated in a thermoshaker (Biosan, Geraardsbergen, Belgium) for 5 min at 37 °C prior to the initiation of the reaction with NADPH.4Na. After incubation, the mixture was terminated by 400 μL ice-cold acetonitrile. […] A volume of 5 µL of supernatant was analysed using UHPLC-MS/MS.

[2] = tested on: CYP450 in chicken liver microsomes; assay: in vitro; settings: read-out: IC50 values in chicken liver microsomes (all CYP450 isoforms tested)
Protocol: as §1

[3] = parameters: species or system broiler chickens (Ross 308); settings: in vivo
broilers = settings: in vivo
[4] = rat, in vivo, po, cited from earlier work
[5] = in vivo, cited from earlier work
[6] = in vivo, po; cited from earlier work
[7] = in vivo, 5 mg/kg; cited from earlier work
[8] = tested on: CYP1A2 (PH), CYP2B6 (BP), CYP2E1 (CLN), CYP2C9 (TBD), CYP2A6 (CAN), CYP3A4 (MDZ); assay: in vitro; settings: chicken, pH 7.4
Protocol: as §1, with “The incubation mixture contained 50 μL of 0.2 mg/mL of CLM, 10 μL of 0.1 M phosphate buffer (pH 7.4), 40 μL of 1 mM NADPH and six probe substrates with a total volume of 200 μL. The specific probe substrates used for each CYP450 isoenzyme in the incubation mixture were as follows: PH (CYP1A2), BP (CYP2B6), CLN (CYP2E1), TBD (CYP2C9), CAN (CYP2A6), and MDZ (CYP3A4).” left out
(§2) Enzyme kinetic studies were conducted for the six CYP450-related probes reactions. For each probe, the maximum rate of the Vmax and Km were obtained using GraphPad Prism v.8.0.2 software via Michaelis-Menten Kinetic model (La Jolla, CA, USA). The incubation times of 5, 10, 15, 30, 45 and 60 min were tested individually. A series of protein concentrations (0.05, 0.1, 0.2, 0.4, 0.6, 0.8 and 1 mg/mL) of CLM in the incubation mixture were conducted. Triplicate analyses were performed for each incubation system.

[9] = tested on: chicken liver microsomes (CYP450); assay: in vitro
Protocol: as §1, with “The incubation mixture contained 50 μL of 0.2 mg/mL of CLM, 10 μL of 0.1 M phosphate buffer (pH 7.4), 40 μL of 1 mM NADPH and six probe substrates with a total volume of 200 μL. The specific probe substrates used for each CYP450 isoenzyme in the incubation mixture were as follows: PH (CYP1A2), BP (CYP2B6), CLN (CYP2E1), TBD (CYP2C9), CAN (CYP2A6), and MDZ (CYP3A4).” left out
as §2

CYP2A6 [10] = settings: read-out: Km of CYP2A6; turkey; CAN as substrate; cited from earlier work
CYP1A2, CYP3A4 = settings: cited from earlier work

COc1cc2c(c3oc(=O)c4c(c13)CCC4=O)[C@@H]1C=CO[C@@H]1O2 [AFB1, aflatoxin B1]
IC50 (CYP2A6 [1]): 24.1 µM
IC50 [2]: > 7.6 µM
AUCINF_obs, Control [3]: 94.2 ± 40.4 ** h·ng/mL
AUCINF_obs, Treatment [3]: 265.8 ± 222.9 ng·h/mL
AUClast, Control [3]: 87.5 ± 39.6 ** h·ng/mL
AUClast, Treatment [3]: 170 ± 103.6 ng·h/mL
CL_F_obs, Control [3]: 238 ± 112 mL/min/kg
CL_F_obs, Treatment [3]: 157 ± 108 mL/min/kg
Cmax, Control [3]: 29.3 ± 3.2 ng/mL
MRTlast, Control [3]: 4.7 ± 0.7 h
MRTlast, Treatment [3]: 6.4 ± 3.2 h
T1/2λz, Treatment [3]: 1.4 ± 0.5 h
Tmax, Treatment [3]: 0.3 ± 0.1 h
Vd_F_obs, Control [3]: 14.8 ± 4.8 L/kg
Vd_F_obs, Treatment [3]: 18.4 ± 7.7 L/kg
increase of AUClast of AFB1 by TIA [3]: 194%
increase of mean residence time (MRT) of AFB1 by TIA [3]: 136%
adverse health effects in broilers (broilers): No significant adverse health effects
AUC0–24 ([4]; 1 mg/kg): 45.59 ± 17.19 ng·h/mL
CL ([4]; 1 mg/kg): 372.2 ± 163 mL/min/kg
Cmax ([4]; 1 mg/kg): 93.42 ± 23.01 ng/mL and 90 ± 20 ng/mL
Tmax ([4]; 1 mg/kg): about 0.15 h
Vd ([4]; 1 mg/kg): 226.46 ± 100.76 L/kg
T1/2e [4]: 7.62 h
AUC0–t ([5]; human): 0.0256 ± 0.0063 ng·h/mL
T1/2β ([5]; human): 64.4 h
Tmax ([5]; human): 1.02 ± 0.31 h
T1/2α [5]: 2.86 h
Cmax [6]: 3.8 ± 0.9 ng/mL
MRT [6]: 11.73 ± 0.94 h
T1/2e [6]: 15.52 ± 0.51 h
Tmax [6]: 0.58 ± 0.17 h
time for depletion in chicken liver, kidney, and muscle [7]: 10 to 19 days

O=c1ccc2ccccc2o1 [Coumarin]
Km ([8]; broiler): 56.1 µM
Km [8]: 56.1 µM
Vmax ([9]; chicken liver microsomes, Michaelis-Menten, PH (CYP1A2), BP (CYP2B6), CLN (CYP2E1), TBD (CYP2C9), CAN (CYP2A6), MDZ (CYP3A4), n = 3): 190.8 nmol/min/mg
Km (CYP2A6 [10]): 33.6 ± 8.52 µM

Cc1ncc2n1-c1ccc(Cl)cc1C(c1ccccc1F)=NC2 [Midazolam]
Km ([8]; broiler): 3.3 µM
Km [8]: 3.31 µM
Vmax [9]: 37.7 nmol/min/mg

CCOc1ccc(NC(C)=O)cc1 [Phenacetin]
Km ([8]; broiler): 20.7 µM
Km [8]: 20.7 µM
Vmax [9]: 63.1 nmol/min/mg
Km (CYP1A2, CYP3A4): 98.1 ± 18.6 µM

CCCCNC(=O)NS(=O)(=O)c1ccc(C)cc1 [Tolbutamide]
Vmax [9]: 159.4 nmol/min/mg
